Read-outs that look alike come from different tables or passages of the source.

The test system of test [1] is NMRI mice. Nature of the test: CP 55,940-induced hypothermia in NMRI mice. The format is in vivo. Particulars: po, CP 55,940 0.3 mg/kg i.v.; for Hypothermia in NMRI mice ID50 or minimum effective dose (MED), result in words: highest dose 30 mg/kg. As for the experimental part: Effect of CB1 Receptor Antagonist/Inverse Agonist on CP 55,940-Induced Hypothermia in NMRI Mice
Male NMRI mice were used in this study and were obtained from Research Consulting Company Ltd (RCC) of Füllinsdorf (Switzerland). Mice, weighing 30-31 g were used in this study. Ambient temperature is approximately 20-21° C. and relative humidity 55-65%. A 12 hours light-dark cycle is maintained in the rooms with all tests being performed during the light phase. Access to tap water and food are ad libitum.
All measurements were made between 12:00 am and 5:00 pm. Mice were brought in this environment and habituated for at least two hours before the start of the experiment. They had always free access to food and water. For each dose, 8 mice were used. Rectal body temperature measurements were recorded by mean of a rectal probe (RET2 of Physitemp) and digital thermometer (Digi-sense n°8528-20 of Cole Parmer, Chicago USA). The probe was inserted about 3.5 cm in each mouse.
The body temperature was taken 15 min before administration of either Vehicle or CB1 receptor antagonist/inverse agonist. 30 or 90 min after i.p. or p.o. administration of this compound, respectively, rectal body temperature was recorded in order to evaluate any influence of the compound itself. The CB receptor agonist CP 55,940 (0.3 mg/kg) was immediately administered intravenously, then 20 min after i.v. administration of CP 55940, body temperature was again measured.

Test [2] has as its target T1, human cannabis CB1 receptor (Homo sapiens, UniProt P21554).
T1 construct: expressed in transfected cells; host or cells: human embryonic kidney (HEK) cells, Semliki Forest Virus system, membrane preparation
Nature of the test: CB1 receptor affinity, [3H]-CP-55,940 radioligand binding on HEK cell membranes. As for the experimental part:
The affinity of the compounds of the invention for cannabinoid CB1 receptors was determined using membrane preparations of human embryonic kidney (HEK) cells in which the human cannabis CB1 receptor is transiently transfected using the Semliki Forest Virus system in conjunction with [3H]-CP-55,940 as radioligand. After incubation of a freshly prepared cell membrane preparation with the [3H]-ligand, with or without addition of compounds of the invention, separation of bound and free ligand was performed by filtration over glassfiber filters. Radioactivity on the filter was measured by liquid scintillation counting.
The data is determined with the experimental conditions described in Devane et. al. Mol. Pharmacol. 34 (1988) 605-613.

The subject of test [3] is obese Spague-Dawley rats fed a high fat diet. The test can be described thus: Body weight reduction in obese rats fed a high fat diet. The format is in vivo. Conditions: over 17 days. An excerpt: In vivo efficacy in the hypothermia model translated into efficacy in a disease related model, namely body weight reduction in obese Spague-Dawley rats fed a high fat diet (in analogy to Vickers et al. Psychopharmacology 2003, 167, 103-11 for obese fa/fa rats).

The conditions of test [4]: doses of 10 and 20 mg daily; cited from earlier work.
Setting [5] is: Table 1, read-out: IC50 (affinity for the CB1 receptor).
Setting [6] is: Table 2, read-out: CB1 receptor affinity IC50.

T1 sequence (P21554 whole entry): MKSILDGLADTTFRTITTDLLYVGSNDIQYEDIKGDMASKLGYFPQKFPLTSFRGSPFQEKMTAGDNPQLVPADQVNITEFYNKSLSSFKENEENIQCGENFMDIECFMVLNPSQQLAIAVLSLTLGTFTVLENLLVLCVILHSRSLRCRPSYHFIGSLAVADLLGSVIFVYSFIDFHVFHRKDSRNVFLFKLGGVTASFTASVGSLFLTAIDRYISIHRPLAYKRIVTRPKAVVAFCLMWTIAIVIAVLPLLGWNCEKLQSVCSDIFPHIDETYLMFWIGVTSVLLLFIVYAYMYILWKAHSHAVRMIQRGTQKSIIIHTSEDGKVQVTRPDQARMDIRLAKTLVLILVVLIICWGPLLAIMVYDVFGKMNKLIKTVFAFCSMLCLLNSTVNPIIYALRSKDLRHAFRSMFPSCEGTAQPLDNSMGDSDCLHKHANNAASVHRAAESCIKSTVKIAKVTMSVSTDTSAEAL

As a reminder, the IC50 is the concentration needed to halve the response being measured. As to `O=C(c1cc2c(cc1F)O[C@](c1ccc(Cl)cc1)(c1ccc(Cl)cc1Cl)O2)N1CCOCC1` [R-(−)-[2-(4-Chloro-phenyl)-2-(2,4-dichloro-phenyl)-6-fluoro-benzo[1,3]dioxol-5-yl]-morpholin-4-yl-methanone], the “Hypothermia in NMRI mice ID50” value in test [1] is reported as “ID50: 1.6 mg/kg po”. For the same compound, the IC50 in test [2] (setting [5]) worked out at 2.5 nM. In addition, the BW reduction in test [3] (once daily 3 mg/kg po) is given as 9.7%.
Turning to `Cc1c(C(=O)NN2CCCCC2)nn(-c2ccc(Cl)cc2Cl)c1-c1ccc(Cl)cc1` [rimonabant, reference compound], the BW reduction in test [3] (once daily 10 mg/kg po) amounted to 6.6%. The “body weight compared to placebo” value in test [4] was “significantly reduced body weight”.
For the compound `O=C(c1cc2c(cc1F)O[C@](c1ccccc1F)(c1ccc(Cl)cc1Cl)O2)N1CCOCC1` [R-(+)[2-(2,4-Dichloro-phenyl)-6-fluoro-2-(2-fluoro-phenyl)-benzo[1,3]dioxol-5-yl]-morpholin-4-yl-methanone], the “Hypothermia in NMRI mice ID50” value in test [1] is recorded as “ID50: 4.0 mg/kg po”. In addition, the IC50 in test [2] (setting [5]) worked out at 5 nM.
Consider `O=C(c1cc2c(cc1F)O[C@@](c1ccc(Cl)cc1)(c1ccc(Cl)cc1Cl)O2)N1CCOCC1` [S-(+)[2-(4-Chloro-phenyl)-2-(2,4-dichloro-phenyl)-6-fluoro-benzo[1,3]dioxol-5-yl]-morpholin-4-yl-methanone], for which the “Hypothermia in NMRI mice minimum effective dose (MED)” value in test [1] is on record as “MED: 10 mg/kg po”. Further, the IC50 in test [2] (setting [5]) and in test [2] (setting [6]) was 17 nM throughout.
For `O=C(c1cc2c(cc1F)O[C@](c1ccc(F)cc1)(c1ccc(Cl)cc1Cl)O2)N1CCOCC1` [R-(+)-[2-(2,4-Dichloro-phenyl)-2-(4-fluoro-phenyl)-6-fluoro-benzo[1,3]dioxol-5-yl]-morpholin-4-yl-methanone], the IC50 in test [2] (setting [5]) stood at 7 nM.
Consider `O=C(c1cc2c(cc1F)OC(c1ccc(Cl)cc1)(c1ccc(Cl)cc1)O2)N1CCOCC1` [Meso-[2,2-Bis-(4-chloro-phenyl)-6-fluoro-benzo[1,3]dioxol-5-yl]-morpholin-4-yl-methanone, reference compound], for which, in test [1], the “Hypothermia in NMRI mice ID50 or minimum effective dose (MED), result in words” value is “inactive at 30”. Also, the IC50 in test [2] (setting [6]) came to 26 nM.
For the compound `O=C(c1cc2c(cc1F)O[C@@](c1ccc(F)cc1)(c1ccc(Cl)cc1Cl)O2)N1CCOCC1` [S-(−)[2-(2,4-Dichloro-phenyl)-2-(4-fluoro-phenyl)-6-fluoro-benzo[1,3]dioxol-5-yl]-morpholin-4-yl-methanone], the IC50 in test [2] (setting [5]) was 75 nM.
`O=C(c1cc2c(cc1F)O[C@@](c1ccccc1F)(c1ccc(Cl)cc1Cl)O2)N1CCOCC1` [S-(−)-[2-(2,4-dichloro-phenyl)-6-fluoro-2-(2-fluoro-phenyl)-benzo[1,3]dioxol-5-yl]-morpholin-4-yl-methanone]: in test [1], the “Hypothermia in NMRI mice ID50 or minimum effective dose (MED), result in words” value was “inactive at 30”. Besides, the IC50 in test [2] (setting [5]) is 33 nM.

These data come from patent US20100056513A1, “STEREOSPECIFICALLY SUBSTITUTED BENZO[1,3]DIOXOLYL DERIVATIVES” (priority 2005, published 2010).
